SMILES strings stand for the structures.

The source of these data is patent US20120165319A1, “INHIBITORS OF INTERLEUKIN-1 BETA CONVERTING ENZYME” (VERTEX PHARMACEUTICALS INCORPORATED, priority 1995, published 2012).

One assay addresses T1, ICE (Homo sapiens, UniProt P29466).
T1 sequence (P29466 120-297 limits assumed): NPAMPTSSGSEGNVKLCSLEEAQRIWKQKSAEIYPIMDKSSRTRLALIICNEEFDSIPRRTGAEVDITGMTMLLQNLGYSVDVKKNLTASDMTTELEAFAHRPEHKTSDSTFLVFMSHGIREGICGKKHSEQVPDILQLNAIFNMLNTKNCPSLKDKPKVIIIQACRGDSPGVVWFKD
T1 sequence (P29466 317-404 limits assumed): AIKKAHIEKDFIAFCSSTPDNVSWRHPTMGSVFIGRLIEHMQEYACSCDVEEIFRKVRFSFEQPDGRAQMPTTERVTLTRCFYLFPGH
As to the kind of experiment: Enzyme assay with UV-visible substrate (visible ICE assay, Succinyl-Tyr-Val-Ala-Asp-pNitroanilide). It is filed as biochemical. To be noted: Table 5. As for the experimental part:
1. Enzyme Assay with Uv-Visible Substrate
This assay is run using an Succinyl-Tyr-Val-Ala-Asp-pNitroanilide substrate. Synthesis of analogous substrates is described by L. A. Reiter (Int. J. Peptide Protein Res. 12, 87-96 (1994)). The assay mixture contains:
The visible ICE assay is run in a 96-well microtiter plate. Buffer, ICE and DMSO (if inhibitor is present) are added to the wells in the order listed. The components are left to incubate at room temperature for 15 minutes starting at the time that all components are present in all wells. The microtiter plate reader is set to incubate at 37° C. After the 15 minute incubation, substrate is added directly to the wells and the reaction is monitored by following the release of the chromophore (pNA) at 405-603 nm at 37° C. for 20 minutes. A linear fit of the data is performed and the rate is calculated in mOD/min. DMSO is only present during experiments involving inhibitors, buffer is used to make up the volume to 100 μl in the other experiments.
For determination of enzyme inhibition constants (Ki) or the mode of inhibition (competitive, uncompetitive or noncompetitive), the rate data determined in the enzyme assays at varying inhibitor concentrations are computer-fit to standard enzyme kinetic equations (see I. H. Segel, Enzyme Kinetics, Wiley-Interscience, 1975).
`Cc1cccc(CC(=O)N2C[C@H](NC(=O)c3ccccc3)C(=O)N(CC(=O)N[C@H](C=O)CC(=O)O)c3ccccc32)c1` [Compound 605t, (3S)-3-[(3S)-2-Oxo-3-benzoylamino-5-(3-methylphenylacetyl)-2,3,4,5-tetrahydro-1H-1,5-benzodiazepin-1-acetylamino]-4-oxo-butyric acid] showed a Ki of 0.033 µM. Take `O=C[C@H](CC(=O)O)NC(=O)CN1C(=O)[C@@H](NC(=O)c2ccccc2)CN(C(=O)OC2CCOC2)c2ccccc21` (stereo partly shown) [Compound 605q]: affinity was put at a Ki of 1 µM.

`CN(C)S(=O)(=O)N[C@H]1CCC(=O)N2CCC[C@@H](C(=O)N[C@H](C=O)CC(=O)O)N2C1=O` [Compound 428] displayed a Ki of 0.28 µM.

The molecule `O=C[C@H](CC(=O)O)NC(=O)[C@@H]1CCCN2C(=O)CC[C@H](NC(=O)Cc3ccccc3)C(=O)N12` [Compound 495] displayed a Ki of 0.043 µM. Take `C[S+](CC(=O)[C@H](CC(=O)O)NC(=O)[C@@H]1CCCN2C(=O)CC[C@H](NC(=O)c3ccccc3)C(=O)N12)Cc1ccccc1Cl` (stereo partly shown) [Compound 281]: the affinity corresponds to a Ki of 0.05 µM.

`CC(=O)N1C[C@H](NC(=O)/C=C/c2ccccc2)C(=O)N(CC(=O)N[C@H](C=O)CC(=O)O)c2ccccc21` [Compound 632] had a Ki of 0.148 µM. `CC(=O)N1C[C@H](NC(=O)O[C@H]2CCOC2)C(=O)N(CC(=O)N[C@H](C=O)CC(=O)O)c2ccccc21` [Compound 634] registered a Ki of 1.4 µM. Molecule `CC(=O)N1C[C@H](NC(=O)c2cccc(O)c2C)C(=O)N(CC(=O)N[C@H](C=O)CC(=O)O)c2ccccc21` [Compound 626] registered an inhibition constant (Ki) of 0.26 µM. For the molecule `CC(=O)c1ccc(C(=O)N[C@H]2CCC(=O)N3CCC[C@@H](C(=O)N[C@H](C=O)CC(=O)O)N3C2=O)cc1` [Compound 474], the inhibition constant Ki was 0.085 µM. Same read-out and setting: as for `CC(=O)N1C[C@H](NC(=O)c2ccsc2)C(=O)N(CC(=O)N[C@H](C=O)CC(=O)O)c2ccccc21` [Compound 624], the figure is 0.3 µM; as for `O=C[C@H](CC(=O)O)NC(=O)[C@@H]1CCCN2C(=O)CC[C@H](NC(=O)c3cccc(F)c3)C(=O)N12` [Compound 462], 0.04 µM.

`CC(=O)N1C[C@H](NC(=O)c2ccc3ccccc3n2)C(=O)N(CC(=O)N[C@H](C=O)CC(=O)O)c2ccccc21` [Compound 619]: the Ki stood at 0.3 µM. For `N[C@H]1CCC(=O)N2CCC[C@@H](C(=O)N[C@H](C=O)CC(=O)O)N2C1=O` [Compound 429], the affinity corresponds to a Ki of 7 µM.

Staying with this assay, now noted: Table 17.
`COc1ccc(C(=O)C(=O)NN2CCC(=O)N3CCC[C@@H](C(=O)N[C@H](C=O)CC(=O)O)N3C2=O)cc1` [Compound 1110]: affinity was put at a Ki of 0.045 µM. As to `O=C[C@H](CC(=O)O)NC(=O)[C@@H]1CCCN2C(=O)CCN(NC(=O)CCc3ccc(Cl)cc3)C(=O)N12` [Compound 1113], the inhibition constant Ki was 0.29 µM. Molecule `O=C[C@H](CC(=O)O)NC(=O)[C@@H]1CCCN2C(=O)CCN(NC(=O)C(=O)c3cccs3)C(=O)N12` [Compound 1107] yielded an inhibition constant (Ki) of 0.065 µM.

In turn, `O=C[C@H](CC(=O)O)NC(=O)[C@@H]1CCCN2C(=O)CCN(NC(=O)/C=C/c3ccc4c(c3)OCO4)C(=O)N12` [Compound 1116] showed a Ki of 0.215 µM. Same read-out and setting: as for `CO/N=C/[C@H](CC(=O)O)NC(=O)[C@@H]1CCCN2C(=O)CC[C@H](NC(=O)c3ccc(OC)cc3)C(=O)N12` [Compound 308c, [3S(1S,9S)3-(9-(4-Methoxybenzoyl)amino-6,10-dioxo-1,2,3,4,7,8,9,10-octahydro-6H-pyridazino[1,2-a][1,2]diazepine-1-carboxamido)-amino]-4-oxobutanoic acid, O-methyl oxime], the figure is 3 µM. Molecule `CC(=O)N1C[C@H](NC(=O)CCc2ccc3c(c2)OCO3)C(=O)N(CC(=O)N[C@H](C=O)CC(=O)O)c2ccccc21` [Compound 707] showed a Ki of 0.18 µM. On the same count and under the same terms, as for `O=C[C@H](CC(=O)O)NC(=O)[C@@H]1CCCN2C(=O)CCN(NC(=O)Cc3ccc4c(c3)OCO4)C(=O)N12` [Compound 1121], the figure is 0.17 µM. As to `Cc1cc(C)c(CC(=O)NN2CCC(=O)N3CCC[C@@H](C(=O)N[C@H](C=O)CC(=O)O)N3C2=O)c(C)c1` [Compound 1122], the Ki amounted to 0.4 µM. Still for that read-out and setting: the figure for `CC(=O)N1C[C@H](NC(=O)/C=C/c2ccc(Cl)c(Cl)c2)C(=O)N(CC(=O)N[C@H](C=O)CC(=O)O)c2ccccc21` [Compound 700] is 0.275 µM; for `COc1ccc(C(=O)N[C@H]2CCC(=O)N3CCC[C@@H](C(=O)N[C@H](/C=N/OCc4ccccc4)CC(=O)O)N3C2=O)cc1` [Compound 308d, [3S(1S,9S)3-(9-(4-Methoxybenzoyl)amino-6,10-dioxo-1,2,3,4,7,8,9,10-octahydro-6H-pyridazino[1,2-a][1,2]diazepine-1-carboxamido)-amino]-4-oxobutanoic acid, O-benzyl oxime] it is 3 µM. Take `CC(=O)N1C[C@H](NC(=O)C(=O)Nc2ccc(Cl)cc2)C(=O)N(CC(=O)N[C@H](C=O)CC(=O)O)c2ccccc21` [Compound 710]: the Ki stood at 0.11 µM. As for `O=C[C@H](CC(=O)O)NC(=O)[C@@H]1CCCN2C(=O)CCN(NC(=O)/C=C/c3ccc(Cl)c(Cl)c3)C(=O)N12` [Compound 1115], affinity was put at a Ki of 0.25 µM.

For `CC(=O)N1C[C@H](NC(=O)/C=C/c2ccc3c(c2)OCO3)C(=O)N(CC(=O)N[C@H](C=O)CC(=O)O)c2ccccc21` [Compound 708], the Ki was found to be 0.14 µM. As for `O=C[C@H](CC(=O)O)NC(=O)[C@@H]1CCCN2C(=O)CCN(NC(=O)C(=O)c3ccc4c(c3)OCO4)C(=O)N12` [Compound 1109], the Ki was found to be 0.08 µM. `O=C[C@H](CC(=O)O)NC(=O)[C@@H]1CCCN2C(=O)CCN(NC(=O)CCc3ccc4c(c3)OCO4)C(=O)N12` [Compound 1114] yielded a Ki of 0.125 µM.

In turn, `CC(=O)NCC(=O)N1C[C@H](NC(=O)c2cccc3ccccc23)C(=O)N(CC(=O)N[C@H](C=O)CC(=O)O)c2ccccc21` [Compound 645, (3S)-3-[(3S)-2-Oxo-3-(1-naphthoyl)amino-5-(2-acetamido)acetyl-2,3,4,5-tetrahydro-1H-1,5-benzodiazepine-1-acetylamino]-4-oxo-butyric acid] displayed a Ki of 0.15 µM.

Consider `CC(=O)N1C[C@H](NC(=O)C(=O)c2ccco2)C(=O)N(CC(=O)N[C@H](C=O)CC(=O)O)c2ccccc21` [Compound 711], for which the Ki was determined as 0.175 µM.

Still in this assay, the particulars now being: Table 27.
With `CC(=O)N[C@@H](CCC(=O)O)C(=O)N[C@H]1CN(C(=O)CO)c2ccccc2N(CC(=O)N[C@H](C=O)CC(=O)O)C1=O` [Compound 731], affinity was put at a Ki of 0.15 µM. On the same count and under the same terms, as for `CC(=O)O[C@@H](C)C(=O)N1C[C@H](NC(=O)c2cc(C)c(O)c(C)c2)C(=O)N(CC(=O)N[C@H](C=O)CC(=O)O)c2ccccc21` [Compound 726], the figure is 0.3 µM; as for `COCC(=O)N1C[C@H](NC(=O)c2nccc3ccccc23)C(=O)N(CC(=O)N[C@H](C=O)CC(=O)O)c2ccccc21` [Compound 699, (3S)-3-[(3S)-2-Oxo-3-isoquinolin-1-oylamino-5-methoxyacetyl-2,3,4,5-tetrahydro-1H-1,5-benzodiazepine-1-acetylamino]-4-oxobutyric acid], 0.0011 µM; as for `CC(=O)OC(C)(C)C(=O)N1C[C@H](NC(=O)c2cc(C)c(O)c(C)c2)C(=O)N(CC(=O)N[C@H](C=O)CC(=O)O)c2ccccc21` [Compound 728], 0.3 µM.
